Residues, ends and D or L forms follow the SMILES beside them.
Biological target: Angiotensin-converting enzyme (Homo sapiens) (UniProt P12821)
Test: Inhibition of ACE (unknown origin)
Parameters: unit not given here

Chain of Angiotensin-converting enzyme (Homo sapiens) (P12821 whole entry): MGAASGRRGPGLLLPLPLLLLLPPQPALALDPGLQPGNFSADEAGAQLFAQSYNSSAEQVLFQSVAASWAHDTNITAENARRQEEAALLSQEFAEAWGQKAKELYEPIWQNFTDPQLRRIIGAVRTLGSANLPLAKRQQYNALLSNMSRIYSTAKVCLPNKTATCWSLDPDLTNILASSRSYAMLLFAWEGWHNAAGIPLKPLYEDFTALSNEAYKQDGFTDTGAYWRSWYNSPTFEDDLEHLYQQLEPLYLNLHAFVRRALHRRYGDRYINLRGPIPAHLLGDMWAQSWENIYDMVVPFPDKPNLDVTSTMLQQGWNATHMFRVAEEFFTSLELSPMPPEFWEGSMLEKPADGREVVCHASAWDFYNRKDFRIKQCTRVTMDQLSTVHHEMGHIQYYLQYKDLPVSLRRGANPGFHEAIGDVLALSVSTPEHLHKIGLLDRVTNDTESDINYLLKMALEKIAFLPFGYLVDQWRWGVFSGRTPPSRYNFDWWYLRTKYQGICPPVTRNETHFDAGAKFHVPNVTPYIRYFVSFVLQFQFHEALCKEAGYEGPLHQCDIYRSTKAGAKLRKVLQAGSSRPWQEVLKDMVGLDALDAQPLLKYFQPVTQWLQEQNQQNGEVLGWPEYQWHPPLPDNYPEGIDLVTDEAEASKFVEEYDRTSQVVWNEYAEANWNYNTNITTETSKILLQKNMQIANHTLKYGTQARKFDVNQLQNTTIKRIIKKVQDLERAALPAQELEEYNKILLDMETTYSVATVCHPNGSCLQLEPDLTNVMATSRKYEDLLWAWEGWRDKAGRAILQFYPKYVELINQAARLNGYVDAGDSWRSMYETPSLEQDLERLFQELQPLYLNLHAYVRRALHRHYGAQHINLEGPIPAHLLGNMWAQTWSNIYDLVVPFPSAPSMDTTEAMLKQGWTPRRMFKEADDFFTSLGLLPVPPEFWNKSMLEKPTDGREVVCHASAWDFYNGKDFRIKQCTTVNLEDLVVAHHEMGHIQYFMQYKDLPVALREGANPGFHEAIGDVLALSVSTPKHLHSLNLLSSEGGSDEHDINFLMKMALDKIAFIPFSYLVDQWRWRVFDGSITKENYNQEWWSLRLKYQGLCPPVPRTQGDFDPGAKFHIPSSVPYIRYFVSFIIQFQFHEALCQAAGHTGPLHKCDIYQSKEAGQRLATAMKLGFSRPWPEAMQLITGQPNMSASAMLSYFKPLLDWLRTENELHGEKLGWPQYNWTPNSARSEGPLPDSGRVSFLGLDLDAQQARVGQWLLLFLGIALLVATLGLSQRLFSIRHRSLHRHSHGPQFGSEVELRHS

| Compound | logIC50 |
| --- | --- |
| H-VHLPP-OH | 1.26 |
| NCCCC[C@H](NC(=O)[C@@H]1CCCN1)C(=O)N[C@@H](Cc1cnc[nH]1)C(=O)N1CCC[C@H]1C(=O)O (H-PKHP-OH) | 2.85 |
| NC(=O)C[C@H](N)C(=O)N[C@@H](Cc1ccc(O)cc1)C(=O)O (H-Asn-Tyr-OH) | 1.51 |
| H-APVPP-OH | 2.8 |
| CC(C)[C@H](N)C(=O)N[C@@H](Cc1ccccc1)C(=O)O (H-Val-Phe-OH) | 0.96 |
| H-LHLWLP-OH | 0.95 |
| H-TKVIP-OH | 2.6 |
| H-VLPYP-OH | 1.56 |
| NCCCC[C@H](NC(=O)CN)C(=O)N1CCC[C@H]1C(=O)O (H-Gly-Lys-Pro-OH) | 2.55 |
| C[C@H](N)C(=O)N[C@@H](Cc1ccccc1)C(=O)O | 1.88 |
| CC(C)[C@H](N)C(=O)N[C@@H](CO)C(=O)N[C@@H](CO)C(=O)N1CCC[C@H]1C(=O)O (H-VSSP-OH) | 1 |
| CSCC[C@H](N)C(=O)N[C@@H](Cc1c[nH]c2ccccc12)C(=O)O (H-Met-Trp-OH) | 1 |
| H-DKIHP-OH | 2.05 |
| NCC(=O)N[C@@H](Cc1ccc(O)cc1)C(=O)O (H-Gly-Tyr-OH) | 2.32 |
| N[C@@H](Cc1ccccc1)C(=O)N[C@@H](Cc1ccc(O)cc1)C(=O)O (H-Phe-Tyr-OH) | 1.4 |
| CC[C@H](C)[C@H](N)C(=O)N[C@@H](Cc1ccc(O)cc1)C(=O)O (H-Ile-Tyr-OH) | 0.79 |
| C[C@@H](O)[C@H](N)C(=O)N[C@@H](Cc1ccccc1)C(=O)O (H-Thr-Phe-OH) | 1.95 |
| CC[C@H](C)[C@H](N)C(=O)N[C@@H](CC(C)C)C(=O)N1CCC[C@H]1C(=O)N1CCC[C@H]1C(=O)O (H-ILPP-OH) | 2.24 |
| H-IAYKP-OH | 0.34 |
| CC(C)[C@H](N)C(=O)N1CCC[C@H]1C(=O)O (H-Val-Pro-OH) | 2.62 |
| CSCC[C@H](NC(=O)[C@@H](N)C(C)C)C(=O)N1CCC[C@H]1C(=O)O (H-Val-Met-Pro-OH) | 1.46 |

| Compound | logIC50 |
| --- | --- |
| NCCCC[C@H](N)C(=O)N[C@@H](Cc1ccccc1)C(=O)O | 1.45 |
| C[C@@H](O)[C@H](N)C(=O)N1CCC[C@H]1C(=O)O (H-Thr-Pro-OH) | 2.46 |
| H-VHLAP-OH | 0.65 |
| N[C@@H](CO)C(=O)N1CCC[C@H]1C(=O)N[C@@H](Cc1ccc(O)cc1)C(=O)N1CCC[C@H]1C(=O)O (H-SPYP-OH) | 2.93 |
| CC(C)[C@H](NC(=O)[C@H](C)N)C(=O)NCC(=O)N1CCC[C@H]1C(=O)O (H-AVGP-OH) | 0.49 |
| NCC(=O)N1CCC[C@H]1C(=O)O (H-Gly-Pro-OH) | 2.56 |
| H-SKVPP-OH | 1.87 |
| H-PQPIP-OH | 2.53 |
| CC(C)C[C@H](N)C(=O)N[C@@H](CCCN=C(N)N)C(=O)N1CCC[C@H]1C(=O)O (H-Leu-Arg-Pro-OH) | -0.57 |
| N[C@@H](CC(=O)O)C(=O)N[C@@H](Cc1ccc(O)cc1)C(=O)O (H-Asp-Tyr-OH) | 2 |
| NC(=O)CC[C@H](NC(=O)[C@@H](N)Cc1ccccc1)C(=O)N1CCC[C@H]1C(=O)O (H-Phe-Gln-Pro-OH) | 1.08 |
| CC(C)C[C@H](N)C(=O)N[C@@H](C)C(=O)N1CCC[C@H]1C(=O)O (H-Leu-Ala-Pro-OH) | 0.54 |
| C[C@H](NC(=O)[C@H](Cc1c[nH]c2ccccc12)NC(=O)CN)C(=O)N1CCC[C@H]1C(=O)O (H-GWAP-OH) | 0.59 |
| N[C@@H](Cc1ccccc1)C(=O)N1CCC[C@H]1C(=O)O (H-Phe-Pro-OH) | 2.5 |
| H-VRGPFP-OH | 2.77 |
| CC(C)C[C@H](N)C(=O)N[C@@H](Cc1ccc(O)cc1)C(=O)O | 1.51 |
| H-LHLPGP-OH | 0.28 |
| H-LHLPAP-OH | 0.78 |
| H-LHLYLP-OH | 1.28 |
| CC(C)C[C@H](N)C(=O)N[C@@H](CCC(=O)O)C(=O)N1CCC[C@H]1C(=O)O (H-Leu-Glu-Pro-OH) | 0.28 |
| CC(C)C[C@H](N)C(=O)N[C@@H](CC(N)=O)C(=O)N1CCC[C@H]1C(=O)O (H-Leu-Asn-Pro-OH) | 1.76 |

| Compound | logIC50 |
| --- | --- |
| CC(C)C[C@H](N)C(=O)N[C@@H](CO)C(=O)N1CCC[C@H]1C(=O)O (H-Leu-Ser-Pro-OH) | 0.23 |
| CC(C)[C@H](N)C(=O)N[C@H](C(=O)N1CCC[C@H]1C(=O)N1CCC[C@H]1C(=O)O)C(C)C (H-VVPP-OH) | 2.45 |
| CC(C)C[C@H](N)C(=O)N[C@@H](Cc1ccc(O)cc1)C(=O)N1CCC[C@H]1C(=O)O (H-Leu-Tyr-Pro-OH) | 0.82 |
| H-LAYFYP-OH | 1.81 |
| CC(C)C[C@H](NC(=O)[C@H](C)N)C(=O)N1CCC[C@H]1C(=O)O (H-Ala-Leu-Pro-OH) | 2.38 |
| CC[C@H](C)[C@H](N)C(=O)N[C@@H](CCCCN)C(=O)N1CCC[C@H]1C(=O)O (H-Ile-Lys-Pro-OH) | 0.84 |
| CC[C@H](C)[C@H](N)C(=O)N[C@@H](Cc1c[nH]c2ccccc12)C(=O)O | 0.67 |
| CC(C)C[C@H](N)C(=O)N[C@H](C(=O)N1CCC[C@H]1C(=O)N1CCC[C@H]1C(=O)O)C(C)C (H-LVPP-OH) | 2.1 |
| H-VIEKYP-OH | 2.24 |
| H-LALPP-OH | 2.9 |
| CC(C)[C@H](NC(=O)[C@@H](N)Cc1ccccc1)C(=O)N[C@@H](C)C(=O)N1CCC[C@H]1C(=O)O (H-FVAP-OH) | 1 |
| CC(C)C[C@H](N)C(=O)N[C@@H](CCCCN)C(=O)N1CCC[C@H]1C(=O)O (H-Leu-Lys-Pro-OH) | 0.6 |
| CC[C@H](C)[C@H](N)C(=O)N[C@@H](CCC(=O)O)C(=O)N1CCC[C@H]1C(=O)O (H-Ile-Glu-Pro-OH) | 0.2 |
| NCC(=O)N[C@@H](Cc1ccccc1)C(=O)O (H-Gly-Phe-OH) | 2.44 |
| N[C@@H](Cc1cnc[nH]1)C(=O)N[C@@H](Cc1ccc(O)cc1)C(=O)O (H-His-Tyr-OH) | 1.42 |
| NC(N)=NCCC[C@H](N)C(=O)N[C@@H](Cc1ccccc1)C(=O)O | 1.97 |
| N[C@@H](CC(=O)O)C(=O)N[C@@H](Cc1ccccc1)C(=O)O (H-Asp-Phe-OH) | 2.56 |
| CC(C)C[C@H](NC(=O)[C@@H](N)CC(=O)O)C(=O)N1CCC[C@H]1C(=O)O (H-Asp-Leu-Pro-OH) | 0.68 |
| H-LHLPLP-OH | 0.57 |

Results, then the compound that gave them:

| logIC50 | Compound |
| --- | --- |
| 2.23 | H-VLIVP-OH |
| 1.66 | H-RPQIPP-OH |
| 2.46 | CC(C)[C@H](N)C(=O)N[C@@H](Cc1ccc(O)cc1)C(=O)N1CCC[C@H]1C(=O)O (H-Val-Tyr-Pro-OH) |
| 1.71 | N=C(N)NCCC[C@H](N)C(=O)N[C@@H](Cc1ccc(O)cc1)C(=O)O (H-Arg-Tyr-OH) |
| 1.67 | NC(=O)C[C@H](N)C(=O)N[C@@H](Cc1ccccc1)C(=O)O (H-Asn-Phe-OH) |
| 1.79 | H-DYGLYP-OH |
| 1 | CC(C)[C@H](N)C(=O)N[C@@H](CO)C(=O)N1CCC[C@H]1C(=O)O (H-Val-Ser-Pro-OH) |
| 1.3 | N=C(N)NCCC[C@H](NC(=O)CN)C(=O)N1CCC[C@H]1C(=O)O (H-Gly-Arg-Pro-OH) |
| 1.28 | C[C@H](N)C(=O)N[C@@H](Cc1ccc(O)cc1)C(=O)O (H-Ala-Tyr-OH) |
| 2.32 | C[C@@H](O)[C@H](N)C(=O)N[C@@H](CC(N)=O)C(=O)N1CCC[C@H]1C(=O)O (H-Thr-Asn-Pro-OH) |
| 1.49 | H-VLPIP-OH |
| 1.9 | H-AVPYP-OH |
| 0.58 | C[C@H](NC(=O)[C@@H](N)Cc1ccccc1)C(=O)N1CCC[C@H]1C(=O)O (H-Phe-Ala-Pro-OH) |
| 2.86 | N[C@@H](Cc1ccc(O)cc1)C(=O)N1CCC[C@H]1C(=O)O (H-Tyr-Pro-OH) |
| 1.32 | NC(N)=NCCC[C@H](N)C(=O)N1CCC[C@H]1C(=O)O (H-Arg-Pro-OH) |
| 2.11 | CC[C@H](C)[C@H](N)C(=O)N1CCC[C@H]1C(=O)O (H-Ile-Pro-OH) |
| 1.34 | NCCCC[C@H](N)C(=O)N1CCC[C@H]1C(=O)O (H-Lys-Pro-OH) |
| 0.43 | CC[C@H](C)[C@H](N)C(=O)N[C@@H](C)C(=O)N1CCC[C@H]1C(=O)O (H-Ile-Ala-Pro-OH) |
| 2.07 | H-PVVVPP-OH |
| 2.53 | CC(C)[C@H](NC(=O)[C@H](C)N)C(=O)N1CCC[C@H]1C(=O)O (H-Ala-Val-Pro-OH) |

| logIC50 | Compound |
| --- | --- |
| 1.65 | CSCC[C@H](N)C(=O)N[C@@H](Cc1ccccc1)C(=O)O (H-Met-Phe-OH) |
| 2.04 | H-HQIYP-OH |
| 1.24 | CC(C)C[C@H](N)C(=O)N[C@@H](Cc1c[nH]c2ccccc12)C(=O)O |
| 1.82 | CSCC[C@H](N)C(=O)N[C@@H](CC(N)=O)C(=O)N1CCC[C@H]1C(=O)O (H-Met-Asn-Pro-OH) |
| 0.78 | H-FFVAP-OH |
| 0.28 | CC(C)C[C@H](N)C(=O)N[C@@H](CCC(N)=O)C(=O)N1CCC[C@H]1C(=O)O (H-Leu-Gln-Pro-OH) |
| 0.36 | H-LHLPYP-OH |
| -0.13 | CC[C@H](C)[C@H](N)C(=O)N[C@@H](CCCNC(=N)N)C(=O)N1CCC[C@H]1C(=O)O (H-Ile-Arg-Pro-OH) |
| 1.08 | C[C@H](N)C(=O)N[C@@H](Cc1c[nH]c2ccccc12)C(=O)O (H-Ala-Trp-OH) |
| 1.2 | NC(N)=NCCC[C@H](N)C(=O)N[C@@H](Cc1c[nH]c2ccccc12)C(=O)O (H-Arg-Trp-OH) |
| 1.08 | N[C@@H](Cc1ccccc1)C(=O)N[C@@H](CCC(=O)O)C(=O)N1CCC[C@H]1C(=O)O (H-Phe-Glu-Pro-OH) |
| 2.4 | H-GRVMP-OH |
| 1.42 | CC(C)[C@H](N)C(=O)NCC(=O)N1CCC[C@H]1C(=O)O (H-Val-Gly-Pro-OH) |
| 0.34 | CC(C)[C@H](N)C(=O)N[C@@H](CCCNC(=N)N)C(=O)N1CCC[C@H]1C(=O)O (H-Val-Arg-Pro-OH) |
| 1.82 | N[C@@H](CO)C(=O)N[C@@H](Cc1ccc(O)cc1)C(=O)O (H-Ser-Tyr-OH) |
| 2.04 | H-PVPQP-OH |
| 1.2 | CC(C)[C@H](N)C(=O)N[C@@H](Cc1ccc(O)cc1)C(=O)O (H-Val-Tyr-OH) |
| 2.51 | NCC(=O)N[C@@H](CCC(=O)O)C(=O)N1CCC[C@H]1C(=O)O (H-Gly-Glu-Pro-OH) |
| 1.4 | NCC(=O)N[C@@H](Cc1c[nH]c2ccccc12)C(=O)O (H-Gly-Trp-OH) |

— ChEMBL document CHEMBL3352520, “CoMFA and CoMSIA analysis of ACE-inhibitory, antimicrobial and bitter-tasting peptides” (Eur J Med Chem, 2014)
